The results in this text go back to patent publication US8124766B2, “Inhibitors of diacylglycerol acyltransferase” (Madrigal Pharmaceuticals, Inc., priority 2008, dated 2012).

Where a name gives a salt, the structure may show the parent alone.

In general, IC50 refers to the concentration that gives 50% inhibition.

This test deals with DGAT. Put plainly: DGAT Phospholipid FlashPlate Assay. The format is biochemical. As to conditions: DGAT pellet, DAG-coated PL-FlashPlate, 14C-Pal-CoA, 37° C. for 1 hour; read-out: DGAT Inhibition Activity IC50. How it is done:
DGAT Phospholipid FlashPlate Assay
Materials for the assay were: PL-FlashPlate: Phospholipid FlashPlates from PerkinElmer, catalog number SMP108; DAG (1,2-Dioleoyl-sn-glycerol) 10 mM suspended in water containing 0.1% Triton X-100; ^14C-Pal-CoA (palmitoyl coenzyme A, [palmitoyl-1-^14C]) from PerkinElmer, catalog number NEC-555 with a specific activity of 55 mCi/mmol; and DGAT pellet, with a protein concentration of 9.85 mg/ml.
Aqueous buffers were prepared or purchased as follows: The coating buffer (CB) was purchased from PerkinElmer, catalog number SMP900A; the reaction buffer (RB) was 50 mM Tris-HCl, pH 7.5, 100 mM NaCl, 0.01% BSA in water; the washing buffer (WB) is 50 mM Tris-HCl, pH 7.5, 100 mM NaCl, 0.05% deoxycholic acid sodium salt in water; the dilution buffer (DB) was 50 mM Tris-HCl, pH 7.5, 100 mM NaCl, 1 mM EDTA, 0.2% Triton X-100 in water.
1,2-Dioleoyl-sn-glycerol (DAG, 10 mmoles) was diluted to 500 μM with coating buffer (CB). The diluted DAG solution was then added to 384-well PL-FlashPlates at 60 μl per well, and incubated at room temperature for 2 days. The coated plates were then washed twice with washing buffer (WB) before use. Test compounds were serial diluted to 2000, 666.7, 222.2, 74.1, 24.7, 8.2, 2.7 and 0.9 μM in 100% DMSO. Diluted compound were further diluted 10 fold with reaction buffer (RB). ^14C-Pal-CoA was diluted to 8.3 μM with RB. The DGAT pellet was diluted to 0.13 mg protein/ml with dilution buffer (DB) immediately before it was added to the PL-FlashPlates to start the reaction. 20 μl of the RB-diluted compounds (or 10% DMSO in RB for Total and Blank), 15 μl of RB diluted 14C-Pal-CoA and 15 μl of DB diluted DGAT pellet (DB without DGAT for Blanks) were transferred to each well of the PL-FlashPlates. The reaction mixtures were incubated at 37° C. for 1 hour. The reactions were stopped by washing 3 times with WB. Plates were sealed with Top-seal and read on a Topcount instrument.
Calculation of IC50: The IC50 values for each compound were generated using an Excel template. The Topcount rpm readings of Total and Blank were used as 0% and 100% inhibition. The percent inhibition values of reactions in the presence of compounds were calculated, and plotted against compound concentrations. All data were fitted into a Dose Response One Site model (4 parameter logistic model) as the following: (A+((B−A)/(1+((x/C)^D)))), with A and B as the bottom and top of the curve (highest and lowest inhibition), respectively, and C as IC50 and D as Hill Coefficient of the compound.
As for `CCn1c(C(=O)Nc2ccc(N3CCN(C(=O)CC(C)(C)C(=O)O)CC3)nc2)cc2c(OC)cc(OC)cc21` [Example 17, 4-(4-{5-[(1-Ethyl-4,6-dimethoxy-1H-indole-2-carbonyl)-amino]-pyridin-2-yl}-piperazin-1-yl)-2,2-dimethyl-4-oxo-butyric acid], the IC50 was 270 nM.
The value for `CCOC(=O)N1CCC(Oc2ccc(NC(=O)c3oc4c(OCC)c(OCC)ccc4c3C)cc2)C1` (stereo not shown) [Example 80, 3-{4-[(6,7-Diethoxy-3-methyl-benzofuran-2-carbonyl)-amino]-phenoxy}-pyrrolidine-1-carboxylic acid ethyl ester] was 583 nM.
For `CCOC(=O)N1CCC(Oc2ccc(NC(=O)c3[nH]c4c(OC)cccc4c3C)cc2)C1` (stereo not shown) [Example 73, 3-{4-[(7-Methoxy-3-methyl-1H-indole-2-carbonyl)-amino]-phenoxy}-pyrrolidine-1-carboxylic acid ethyl ester] the value was 90 nM.
The value for `CCn1c(C(=O)Nc2ccc(N(C)CCOC)nc2)cc2cc(Cl)ccc21` [Example 43, 5-Chloro-1-ethyl-4H-indole-2-carboxylic acid {6-[(2-methoxy-ethyl)-methyl-amino]-pyridin-3-yl}-amide hydrochloride] was 161 nM.
Consider `CCOC(=O)N1CC[C@H](Nc2ccc(NC(=O)c3cc4cc(Cl)ccc4n3CC)cn2)C1` [Example 56, (S)-3-{5-[(5-Chloro-1-ethyl-1H-indole-2-carbonyl)-amino]-pyridin-2-ylamino}-pyrrolidine-1-carboxylic acid ethyl ester], for which the IC50 was determined as 671 nM.
For `CCOc1cccc2c1cc(C(=O)Nc1ccc(O[C@H]3CCN(C(=O)CC(C)(C)C(=O)O)C3)cc1)n2CC` [Example 66, 4-((S)-3-{4-[(4-Ethoxy-1-ethyl-1H-indole-2-carbonyl)-amino]-phenoxy}-pyrrolidin-1-yl)-2,2-dimethyl-4-oxo-butyric acid] the value was 208 nM; for `CCn1c(C(=O)Nc2ccc(C3CCN(C(=O)CC(C)(C)C(=O)O)CC3)cc2)cc2c(Cl)c(Cl)ccc21` [Example 9, 4-(4-{4-[(4,5-Dichloro-ethyl-1H-indole-2-carbonyl)-amino]-phenyl}-piperidin-1-yl)-2,2-dimethyl-4-oxo-butyric acid], 333 nM; for `CCOC(=O)N1CC[C@H](Nc2ccc(NC(=O)c3cc4c(Cl)cccc4s3)cn2)C1` [Example 47, (S)-3-{5-[(4-Chloro-benzo[b]thiophene-2-carbonyl)-amino]pyridin-2-ylamino}-pyrrolidine-1-carboxylic acid ethyl ester hydrochloride], 280 nM.
For `CCOC(=O)N1CC[C@H](Nc2ccc(NC(=O)c3cc4c(OC)cc(OC)cc4n3CC)cn2)C1` [Example 52, (S)-3-{5-[(1-Ethyl-4,6-dimethoxy-1H-indole-2-carbonyl)-amino]-pyridin-2-ylamino}pyrrolidine-1-carboxylic acid ethyl ester] the value was 229 nM; for `CCn1c(C(=O)Nc2ccc(N(C)CCOC)nc2)cc2ccccc21` [Example 37, 1-Ethyl-1H-indole-2-carboxylic acid {6-[(2-methoxy-ethyl)-methyl-amino]-pyridin-3-yl}-amide hydrochloride], 425 nM.
For `CCn1c(C(=O)Nc2ccc(C3CCN(C(=O)[C@H]4CC[C@H](C(=O)O)CC4)CC3)cc2)cc2c(C)cccc21` [Example 30, trans-4-(4-{4-[(1-Ethyl-4-methyl-1H-indole-2-carbonyl)-amino]-phenyl}-piperidine-1-carbonyl)-trans-1,4-cyclohexanecarboxylic acid] the value was 824 nM; for `CC(C)(C)OC(=O)N1CCN(c2ccc(NC(=O)c3cc4c(Cl)cccc4s3)cn2)CC1` [Example 1, 4-{5-[(4-Chloro-benzo[b]thiophene-2-carbonyl)-amino]-pyridin-2-yl}-piperazine-1-carboxylic acid tert-butyl ester], 292 nM.
For the compound `COCCN(C)c1ccc(NC(=O)c2cc3cc(Cl)ccc3n2C)cn1` [Example 42, 5-Chloro-1-methyl-1H-indole-2-carboxylic acid {6-[(2-methoxy-ethyl)-methyl-amino]-pyridin-3-yl}-amide hydrochloride], the IC50 amounted to 750 nM.
With `CCOC(=O)N1CCN(c2ccc(NC(=O)c3cc4c(OC)cccc4n3CC)cn2)CC1` [Example 21, 4-{5-[(1-Ethyl-4-methoxy-1H-indole-2-carbonyl)-amino]-pyridin-2-yl}-piperazine-1-carboxylic acid ethyl ester], the 50% inhibitory concentration (IC50) turned out to be 282 nM.
Turning to `CC(C)(CC(=O)N1CCN(c2ccc(NC(=O)c3cc4c(Cl)cccc4s3)cc2)CC1)C(=O)O` [Example 26, 4-(4-{4-[(4-Chloro-benzo[b]thiophene-2-carbonyl)-amino]-phenyl}-piperazin-1-yl)-2,2-dimethyl-4-oxo-butyric acid], the IC50 is 145 nM.
The value for `CCOC(=O)N1CC[C@H](Nc2ccc(NC(=O)c3cc4c(OCC)cccc4n3CC)cn2)C1` [Example 55, (S)-3-{5-[(4-Ethoxy-1-ethyl-1H-indole-2-carbonyl)-amino]-pyridin-2-ylamino}-pyrrolidine-1-carboxylic acid ethyl ester hydrochloride] was 414 nM; that for `COc1cccc2c(C)c(C(=O)Nc3ccc(N4CCN(C(=O)OC(C)(C)C)CC4)cc3)[nH]c12` [Example 71, 4-{4-[(7-Methoxy-3-methyl-1H-indole-2-carbonyl)-amino]-phenyl}-piperazine-1-carboxylic acid tert-butyl ester] was 188 nM.
The value for `CC(C)(CC(=O)N1CCN(c2ccc(NC(=O)c3cc4cc(Br)ccc4s3)cn2)CC1)C(=O)O` [Example 4, 4-(4-{5-[(5-Bromo-benzo[b]thiophene-2-carbonyl)-amino]-pyridin-2-yl}-piperazin-1-yl)-2,2-dimethyl-4-oxo-butyric acid] was 85 nM.
The value for `CCOC(=O)N1CC[C@H](Nc2ccc(NC(=O)c3cc4cc(C(F)(F)F)ccc4s3)cn2)C1` [Example 49, (S)-3-{5-[(5-Trifluoromethyl-benzo[b]thiophene-2-carbonyl)-amino]-pyridin-2 ylamino}-pyrrolidine-1-carboxylic acid ethyl ester hydrochloride] was 594 nM; that for `CCOC(=O)N1CC[C@H](Nc2ccc(NC(=O)c3cc4c(C)cccc4n3CC)cn2)C1` [Example 53, (S)-3-{5-[(1-Ethyl-4-methyl-1H-indole-2-carbonyl)-amino]-pyridin-2-ylamino}-pyrrolidine-1-carboxylic acid ethyl ester hydrochloride] was 209 nM; that for `CCOC(=O)N1CC[C@H](Nc2ccc(NC(=O)c3cc4c(Cl)c(Cl)ccc4n3CC)cn2)C1` [Example 57, (S)-3-{5-[(4,5-Dichloro-1-ethyl-1H-indole-2-carbonyl)-amino]-pyridin-2-ylamino}-pyrrolidine-1-carboxylic acid ethyl ester hydrochloride] was 548 nM.
In the case of `COCCN(C)c1ccc(NC(=O)c2sc3ccccc3c2C)cn1` [Example 35, 3-Methyl-benzo[b]thiophene-2-carboxylic acid {6-[(2-methoxy-ethyl)-methyl-amino]-pyridin-3-yl}-amide hydrochloride], the half-inhibitory concentration (IC50) was determined as 351 nM.
Turning to `CC(C)(CC(=O)N1CCN(c2ccc(NC(=O)c3cc4c(Cl)cccc4s3)cn2)CC1)C(=O)O` [Example 2, 4-(4-{5-[(4-Chloro-benzo[b]thiophene-2-carbonyl)-amino]-pyridin-2-yl}-piperazin-1-yl)-2,2-dimethyl-4-oxo-butyric acid], the IC50 came out at 32 nM.
As to `CCOC(=O)N1CC[C@H](Nc2ccc(NC(=O)c3cc4ccccc4s3)cn2)C1` [Example 48, (S)-3-{5-[(Benzo[b]thiophene-2-carbonyl)-amino]-pyridin-2-ylamino}-pyrrolidine-1-carboxylic acid ethyl ester hydrochloride], the IC50 came out at 396 nM.
For `CCOc1cccc2c1cc(C(=O)Nc1ccc(O[C@H]3CCN(C(=O)OC(C)(C)C)C3)cc1)n2CC` [Example 65, (S)-3-{4-[(4-Ethoxy-1-ethyl-1H-indole-2-carbonyl)-amino]-phenoxy}-pyrrolidine-1-carboxylic acid tert-butyl ester] the value was 701 nM.
